# Data taken from ChEMBL document CHEMBL1799987, “In vivo and in vitro SAR of tetracyclic MAPKAP-K2 (MK2) inhibitors. Part II” (Bioorg Med Chem Lett, 2010).
# pIC50: −log10 of the molar value.
# Key:
# [1] = Thermodynamic solubility of the compound at pH 6.8; assay type: physicochemical; details: buffer, read-out: Therm_solubility
# [2] = test system: PBMC; assay: cells; details: Homo sapiens
# [3] = molecular target: T1, MAP kinase-activated protein kinase 2 (Homo sapiens, UniProt P49137)
# [4] = molecular target: T1, MAP kinase-activated protein kinase 2; remark: listed apart in the source
# [5] = test system: Plasma; assay: Plasma concentration in OF1 mouse at 100 mg/kg, po; assay type: ADME, organism-based; design: dose 100 mg/kg, route oral; details: in vivo
# [6] = species: Mus musculus; assay: animal or person; details: OF1, po, 1 h, read-out: INH
# T1 sequence (P49137 whole entry): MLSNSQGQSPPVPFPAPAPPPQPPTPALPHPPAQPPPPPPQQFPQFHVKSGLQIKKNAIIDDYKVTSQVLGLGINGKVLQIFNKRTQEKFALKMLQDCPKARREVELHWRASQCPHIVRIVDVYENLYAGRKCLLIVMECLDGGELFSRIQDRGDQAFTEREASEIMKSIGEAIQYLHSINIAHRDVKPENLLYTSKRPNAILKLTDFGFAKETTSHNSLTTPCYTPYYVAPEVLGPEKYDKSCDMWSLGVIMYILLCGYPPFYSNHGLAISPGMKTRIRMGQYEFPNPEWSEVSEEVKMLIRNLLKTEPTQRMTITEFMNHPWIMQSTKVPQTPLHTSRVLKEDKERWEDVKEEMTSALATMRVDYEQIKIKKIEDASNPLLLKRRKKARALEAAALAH
solubility thermodynamic [1] [µM],pIC50 [3],pIC50 [4],concentration [5] [nM],Compound,pIC50 [2],inhibition in vivo at 100 mg/kg [6] [%]
< 4,8.00,5.82,–,COCCOc1cncc(-c2cc3c(ccc4c5c([nH]c43)CCNC5=O)cn2)c1,6.52,–
< 4,–,–,–,O=C1NC2(CC2)Cc2[nH]c3c(c21)CCc1cnc(-c2ccc(OCCN4CCOCC4)cc2)cc1-3,6.70,–
10,–,–,–,O=C1NC2(CC2)Cc2[nH]c3c(c21)CCc1cnc(-c2ccccc2F)cc1-3,6.05,–
54,–,–,–,Cn1c2c(c3c1C1(CNC1)CNC3=O)CCc1cnc(-c3ccccc3F)cc1-2,5.74,–
373,–,–,–,CN1CC2(CNC(=O)c3c2[nH]c2c3CCc3cnc(-c4ccccc4F)nc3-2)C1,5.80,–
40,–,–,100,COc1ccc(-c2cc3c(cn2)CCc2c-3[nH]c3c2C(=O)NCC32CN(C)C2)cc1,7.22,0
–,–,–,–,CN1CC2(CNC(=O)c3c2[nH]c2c3CCc3cnc(-c4cccc(F)c4)nc3-2)C1,6.30,–
69,–,–,–,CN1CC2(CNC(=O)c3c2[nH]c2c3Cc3cnc(-c4ccccc4F)cc3-2)C1,< 5.00,–
< 5,–,–,–,COc1ccc(-c2ncc3c(n2)-c2[nH]c4c(c2CC3)C(=O)NCC4)cc1,6.05,–
< 4,–,–,–,COc1ccc(-c2ncc3c(n2)-c2[nH]c4c(c2CC3)C(=O)NCC42CC2)cc1,6.40,–
< 4,–,–,600,COc1ccc(-c2cc3c(cn2)CCc2c-3[nH]c3c2C(=O)NCC32CC2)cc1,5.77,16
8,–,–,–,O=C1NC2(CC2)Cc2[nH]c3c(c21)CCc1cnc(-c2ccccc2F)nc1-3,5.64,–
11,–,–,–,O=C1NCCc2[nH]c3c(c21)CCc1cnc(-c2ccccc2F)cc1-3,5.82,–
21,–,–,–,COCCOc1cncc(-c2cc3c(cn2)CCCc2c-3[nH]c3c2C(=O)NCC3)c1,5.96,–
–,–,–,–,COCCOc1cncc(-c2ncc3c(n2)-c2[nH]c4c(c2CC3)C(=O)NCC42CN(C)C2)c1,5.82,–
8,–,–,–,COCCOc1cncc(-c2cc3c(cn2)CCc2c-3[nH]c3c2C(=O)NCC3)c1,6.40,–
> 1000,–,–,6000,CN1CC2(CNC(=O)c3c2[nH]c2c3CCc3cnc(-c4ccccc4F)cc3-2)C1,7.00,90
< 4,–,–,–,O=C1NC2(CC2)Cc2[nH]c3c(c21)CCc1cnc(-c2ccc(F)nc2)nc1-3,6.15,–
< 4,–,–,–,O=C1NC2(CC2)Cc2[nH]c3c(c21)CCc1cnc(-c2ccc(OCCN4CCOCC4)cc2)nc1-3,6.52,–
–,–,–,–,CN1CC2(CNC(=O)c3c2[nH]c2c3CCc3cnc(-c4ccc(OCCN5CCOCC5)cc4)nc3-2)C1,7.00,–
24,–,–,–,CC(=O)N1CC2(CNC(=O)c3c2[nH]c2c3CCc3cnc(-c4ccccc4F)cc3-2)C1,5.19,–
950,–,–,–,CCN1CC2(CNC(=O)c3c2[nH]c2c3CCc3cnc(-c4ccccc4F)cc3-2)C1,6.15,–
